Measurements: patent US20200222347A1, “ANTIMICROBIALS AND METHODS OF USE THEREOF” (priority 2013, published 2020)
Entries after “also recorded” stand apart in the source; their conditions may differ.

Legend:
C difficile = test: Kirby-Bauer disc diffusion antimicrobial susceptibility; type: cell-based; conditions: 100 mM, carrier water; 48 hours for anaerobes
S. aureus 33591 (MRSA) = test: as above; type: cell-based, Staphylococcus aureus; conditions: 100 mM, carrier water; 18-24 hours for aerobes
Propionibacterium acnes = test: Human skin disinfection study, species analysis of cultures; type: in vivo; conditions: Phase IV
Description: Phase 1: The active test reagent was topically applied 1.54% PCA in sterile water to the anterior shoulder region. This 1.54% solution of PCA in water was used effectively in our prior animal wound studies. The controls were Chloroprep (2% Chlorhexidine in 70% isopropyl alcohol) and Betadine (9.0% to 12.0% available iodine in water). Cultures were taken before application and 20 minutes after application. The initial harvest was by a surface swab. Application was by soaked sponge, without force or scrubbing. The second harvest was performed with the back edge of a sterile knife blade scraping with pressure in attempt to maximize the harvest from the deeper sebaceous glands and hair follicles. The specimens were placed in culture media. Bacteriology was performed at WuXiAppTec in Marrietta, Ga.
Phase 2 included eleven medical students and was same method as Phase 1. However the PCA vehicle was changed to 70% isopropyl alcohol. This allowed a higher concentration of PCA than possible in sterile water, 10%. Phase 2a: The 70% isopropyl alcohol vehicle was tested for its bactericidal properties. […] In this way it was learned what specific bacterial strains PCA could eliminate or reduce.
Cultures were stored in ice and shipped in FedEx ice box to WuXiapptec in Marietta, Ga. for aerobic and anaerobic cultures and held for 21 days. […]

[1] = test system: normal human skin bacterial resident flora; test: Summary of the 4 Phase Testing at Loma Linda; type: in vivo
Description: A randomized double blinded study was performed at Loma Linda Medical School. It involved 4 phases over two years' time.

[2] = test system: Pseudomonas Aeruginosa ATCC 700888 biofilm; test: Drip flow biofilm reactor, PCA coated cloth and sintered mesh, Example 7; type: cell-based
Source text: The cloth was dried when tested.

[3] = test system: Staphylococcus aureus ATCC 33591 (MRSA) biofilm; test: as above; conditions: 30% concentration of PCA (FIG. 36)
[4] = Amount of PCA that can be dissolved; type: physicochemical
Description: For instance the dose used on an open rodent taped stripped skin would be conditioned by the wound's tolerance of the vehicle which in this case would be water, normal saline or like. The amount of PCA for instance that can be dissolved in water is 1.24 grams per 100 ml. In the rodent the effective dose of C-3-G and PCA were expressed in […] (mM) as 25 to 200 mM dose. Conversion factors are necessary to make comparisons to larger doses used in other applications. 78 mM (mmole/L) PCA would be 12.021 g PCA per Liter. Therefore 25 mM/L would be 3.852 grams per liter or […]. The fluid applied was […] or 0.1 milliliter. Therefore, for example, the dose of PCA that was bactericidal on Pseudomonas aeruginosa on taped stripped rodent skin was 0.00038 grams. When treating intact normal human skin as in the Loma Linda Medical School testing, it was shown the 1.24 gram in 100 ml of water would only decrease the number of colonies of Propionibacterium acnes. Note that there was no skin penetration properties to water by this method. The increase of PCA concentration was possible to as much as 17% when in composition of matter was 70% isopropyl alcohol with propylene glycol and essences of peppermint oil. This composition had skin penetration properties. However the amount of liquid applied was no more than one milliliter by cotton swab. Therefore the topical dose on intact human skin was […] (estimated). This is many times that required for traumatized taped stripped skin.
For compositions applied to the skin or a bandage the PCA crystals need to be dissolved in a liquid. […] The use of isopropyl alcohol in the combination was not an obvious choice because isopropyl alcohol alone only is marginally effective in killing bacteria. So even after using isopropyl alcohol to dissolve the PCA, the inventor discovered that even at 10% PCA in isopropyl alcohol, the composition was only marginally effective. […]

[5] = test system: Klebssilla pneumonia ATCC4352; test: Paper disc test with water or propylene glycol, Example 10; type: cell-based
K. pneumoniae = test: Kirby-Bauer disc diffusion antimicrobial susceptibility; type: cell-based; conditions: 100 mM, carrier water; 18-24 hours for aerobes
all bacteria tested = test: In vitro antimicrobial susceptibility, whole panel; type: cell-based
C. albicans = test: Kirby-Bauer disc diffusion antimicrobial susceptibility; type: cell-based, Candida albicans; conditions: 100 mM, carrier water

O=C(O)c1ccc(O)c(O)c1 [PCA, Protocatechuic acid]
effectiveness against C. difficile (growth inhibition) (C difficile): effective | effectiveness against S. aureus 33591 (MRSA) (S. aureus 33591 (MRSA)): effective | P. acnes growth after treatment (Propionibacterium acnes; culture #14, 20 minutes): no growth | P. acnes growth after treatment (Propionibacterium acnes; culture #19, 60 minutes): no growth | optimal dose to act as a human skin disinfectant ([1]; in vivo): greater than 10% | removal of pathogens from human skin ([1]; solutions at 10% or higher): removed all pathogens | effectiveness against Pseudomonas biofilm ([2]; 10% concentration of PCA (FIG. 33)): not as effective | effectiveness against Pseudomonas biofilm ([2]; 20% concentration of PCA in 70% isopropyl alcohol, dried coating (FIG. 34)): effective; also recorded: very effective | effectiveness against MRSA biofilm [3]: effective; also recorded: very effective | concentration possible in solution ([4]; 70% isopropyl alcohol with propylene glycol and essences of peppermint oil): ≤ 17% | amount that can be dissolved in water ([4]; Water): 1.24 grams per 100 ml | concentration achieved when dissolving in water ([4]; Water): ≤ 1.24% | inhibition of growth under the sample ([5]; PPG): I | zone of inhibition ([5]; PPG): 3 mm | inhibition of growth under the sample ([5]; Water): I | zone of inhibition ([5]; Water): 2 mm | effectiveness against K. pneumoniae (K. pneumoniae): effective | antibiotic properties (summary) (all bacteria tested): broad spectrum antibiotic | overall effectiveness in the in vitro panel (all bacteria tested; 100 mM, carrier water, 18-24 hours for aerobes, 48 hours for anaerobes): effective against all bacteria tested | effectiveness against C. albicans (C. albicans): effective; also recorded: susceptible
